Test results from ChEMBL document CHEMBL4819021, “Paratrimerins J-Y, Dimeric Coumarins Isolated from the Stems of Paramignya trimera” (J Nat Prod, 2021).
Calls of active or inactive are those of the source.

Columns and labels:
Format in all cases: functional, cell-based
[1] = tested on: HCC1428; experiment: Cytotoxicity against human HCC1428 cells assessed as reduction in cell viability at 40 uM measured after 72 hrs by MTS assay
[2] = tested on: MDA-MB-468; experiment: Cytotoxicity against human MDA-MB-468 cells assessed as reduction in cell viability at 40 uM measured after 72 hrs by MTS assay
[3] = tested on: HCC38; experiment: Cytotoxicity against human HCC38 cells assessed as reduction in cell viability at 40 uM measured after 72 hrs by MTS assay
[4] = tested on: HCT-8; experiment: Cytotoxicity against human HCT-8 cells assessed as reduction in cell viability at 40 uM measured after 72 hrs by MTS assay
[5] = tested on: HCT-116; experiment: Cytotoxicity against human HCT-116 cells assessed as reduction in cell viability at 40 uM measured after 72 hrs by MTS assay
[6] = tested on: SK-BR-3; experiment: Cytotoxicity against human SK-BR-3 cells assessed as reduction in cell viability at 40 uM measured after 72 hrs by MTS assay
[7] = tested on: BT-549; experiment: Cytotoxicity against human BT-549 cells assessed as reduction in cell viability at 40 uM measured after 72 hrs by MTS assay
[8] = tested on: MDA-MB-231; experiment: Cytotoxicity against human MDA-MB-231 cells assessed as reduction in cell viability at 40 uM measured after 72 hrs by MTS assay
[9] = tested on: SK-HEP1; experiment: Cytotoxicity against human SK-HEP1 cells assessed as reduction in cell viability at 40 uM measured after 72 hrs by MTS assay
[10] = tested on: MCF7; experiment: Cytotoxicity against human MCF7 cells assessed as reduction in cell viability at 40 uM measured after 72 hrs by MTS assay
[11] = tested on: MDA-MB-435; experiment: Cytotoxicity against human MDA-MB-435 cells assessed as reduction in cell viability at 40 uM measured after 72 hrs by MTS assay
[12] = tested on: COLO 205; experiment: Cytotoxicity against human COLO 205 cells assessed as reduction in cell viability at 40 uM measured after 72 hrs by MTS assay
[13] = tested on: HCC70; experiment: Cytotoxicity against human HCC70 cells assessed as reduction in cell viability at 40 uM measured after 72 hrs by MTS assay
[14] = tested on: SW480; experiment: Cytotoxicity against human SW480 cells assessed as reduction in cell viability at 40 uM measured after 72 hrs by MTS assay
[15] = tested on: T47D; experiment: Cytotoxicity against human T47D cells assessed as reduction in cell viability at 40 uM measured after 72 hrs by MTS assay
[16] = tested on: RKO; experiment: Cytotoxicity against human RKO cells assessed as reduction in cell viability at 40 uM measured after 72 hrs by MTS assay
[17] = tested on: KM12; experiment: Cytotoxicity against human KM12 cells assessed as reduction in cell viability at 40 uM measured after 72 hrs by MTS assay
[18] = tested on: SW-620; experiment: Cytotoxicity against human SW-620 cells assessed as reduction in cell viability at 40 uM measured after 72 hrs by MTS assay
[19] = tested on: Hs-578T; experiment: Cytotoxicity against human Hs-578T cells assessed as reduction in cell viability at 40 uM measured after 72 hrs by MTS assay

Measured: Activity

CC1=C[C@@H](c2cc3ccc(=O)oc3cc2O[C@@H]2O[C@H](CO[C@@H]3OC[C@](O)(CO)[C@H]3O)[C@@H](O)[C@H](O)[C@H]2O)[C@@](C)(/C=C/c2cc3ccc(=O)oc3cc2O[C@@H]2O[C@H](CO)[C@@H](O)[C@H](O)[C@H]2O)CC1
inactive: all assays above

CC1=C[C@H](c2cc3ccc(=O)oc3cc2O[C@@H]2O[C@H](COC3OC[C@@H](O)[C@H](O)[C@H]3O)[C@@H](O)[C@H](O)[C@H]2O)[C@](C)(/C=C/c2cc3ccc(=O)oc3cc2O[C@@H]2O[C@H](COC3OC[C@@H](O)[C@H](O)[C@H]3O)[C@@H](O)[C@H](O)[C@H]2O)CC1 (stereo partly drawn)
inactive: all assays above

CC1=C[C@H](c2cc3ccc(=O)oc3cc2O[C@@H]2O[C@H](CO)[C@@H](O)[C@H](O)[C@H]2O)[C@](C)(/C=C/c2cc3ccc(=O)oc3cc2O[C@@H]2O[C@H](COC3OC[C@@H](O)[C@H](O)[C@H]3O)[C@@H](O)[C@H](O)[C@H]2O)CC1 (stereo partly drawn)
inactive: all assays above

CC1=C[C@@H](c2cc3ccc(=O)oc3cc2O[C@@H]2O[C@H](COC3OC[C@@H](O)[C@H](O)[C@H]3O)[C@@H](O)[C@H](O)[C@H]2O)[C@@](C)(/C=C/c2cc3ccc(=O)oc3cc2O[C@@H]2O[C@H](COC3OC[C@@H](O)[C@H](O)[C@H]3O)[C@@H](O)[C@H](O)[C@H]2O)CC1 (stereo partly drawn)
inactive: all assays above

CC1=C[C@H](c2cc3ccc(=O)oc3cc2O[C@@H]2O[C@H](CO)[C@@H](O)[C@H](O)[C@H]2O)[C@@](C)(/C=C/c2cc3ccc(=O)oc3cc2O[C@@H]2O[C@H](COC3OC[C@@H](O)[C@H](O)[C@H]3O)[C@@H](O)[C@H](O)[C@H]2O)CC1 (stereo partly drawn)
inactive: all assays above

CC1=C[C@H](c2cc3ccc(=O)oc3cc2O[C@@H]2O[C@H](CO[C@@H]3OC[C@](O)(CO)[C@H]3O)[C@@H](O)[C@H](O)[C@H]2O)[C@](C)(/C=C/c2cc3ccc(=O)oc3cc2O[C@@H]2O[C@H](CO)[C@@H](O)[C@H](O)[C@H]2O)CC1
inactive: all assays above

CC1=C[C@H](c2cc3ccc(=O)oc3cc2O[C@@H]2O[C@H](COC3OC[C@@H](O)[C@H](O)[C@H]3O)[C@@H](O)[C@H](O)[C@H]2O)[C@](C)(/C=C/c2cc3ccc(=O)oc3cc2O[C@@H]2O[C@H](CO)[C@@H](O)[C@H](O)[C@H]2O)CC1 (stereo partly drawn)
inactive: all assays above
